In ChEMBL document CHEMBL1201862, “PubChem BioAssay data set” (2004):
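Assay format: 96-well plates, 48-hour exposure. At the GI50, growth is halved.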 Active and inactive are the calls of the source. Rule as the data show it: active = GI50 up to about 1.1 µM and inactive = higher.

Columns and labels:
Assay in all cases: growth of human tumour cells (NCI), 48 h
[1] = test system: CCRF-CEM
[2] = test system: A549
[3] = test system: LOX IMVI
[4] = test system: HCT-116
[5] = test system: SF-268
[6] = test system: SR
[7] = test system: KM12
[8] = test system: OVCAR-4
[9] = test system: OVCAR-8
[10] = test system: IGROV-1
[11] = test system: NCI-H522
[12] = test system: NCI-H226
[13] = test system: SN12C
[14] = test system: Hs-578T
[15] = test system: NCI/ADR-RES
[16] = test system: A498
[17] = test system: OVCAR-5
[18] = test system: NCI-H23
[19] = test system: M14

For `CC(C)CC(=O)NC(NC(C)C)(C(F)(F)F)C(F)(F)F`, the GI50 [1] was > 100 µM (inactive), the GI50 [2] was > 100 µM (inactive) and the GI50 [3] was > 100 µM (inactive). For the same compound, the GI50 [4] was > 100 µM (inactive), the GI50 [5] was > 100 µM (inactive) and the GI50 [6] was > 100 µM (inactive). For the same compound, the GI50 [7] was > 100 µM (inactive), the GI50 [8] was > 100 µM (inactive) and the GI50 [9] was > 100 µM (inactive). For the same compound, the GI50 [10] was > 100 µM (inactive), the GI50 [11] was > 100 µM (inactive) and the GI50 [12] was > 100 µM (inactive). For the same compound, the GI50 [13] was > 100 µM (inactive), the GI50 [14] was > 100 µM (inactive) and the GI50 [15] was > 100 µM (inactive).

In the case of `COc1cc(O)c(C(=O)/C=C/c2ccc(O)cc2)cc1Oc1ccc(/C=C/C(=O)c2ccc(O)cc2O)cc1` [RHUSCHALCONE III], the GI50 [1] is reported as 7.29 µM (inactive), the GI50 [2] is reported as 14.8 µM (inactive) and the GI50 [3] is reported as 8.45 µM (inactive). The GI50 [16] was 6.93 µM (inactive), the GI50 [4] was 7.85 µM (inactive) and the GI50 [5] was 8.81 µM (inactive). For the same compound, the GI50 [6] was 5.01 µM (inactive), the GI50 [7] was 6.75 µM (inactive) and the GI50 [8] was 8.07 µM (inactive). The GI50 [9] was 9.02 µM (inactive), the GI50 [10] was 7.66 µM (inactive) and the GI50 [11] was 7.41 µM (inactive). The GI50 [17] was 13.7 µM (inactive), the GI50 [13] was 8.81 µM (inactive) and the GI50 [14] was 14.4 µM (inactive). For the same compound, the GI50 [15] was 10.1 µM (inactive), the GI50 [18] was 11.1 µM (inactive) and the GI50 [19] was 9.62 µM (inactive).

For `COc1cc2c(cc1Cl)[n+]([O-])c(C#N)c(N1CCN(c3ccc([N+](=O)[O-])cc3)CC1)[n+]2[O-]`, the GI50 [1] was 8.73 µM (inactive), the GI50 [2] was 11.6 µM (inactive) and the GI50 [3] was 4.68 µM (inactive). For the same compound, the GI50 [4] was 24 µM (inactive), the GI50 [5] was 13.1 µM (inactive) and the GI50 [6] was 2.86 µM (inactive). The GI50 [7] was 21.9 µM (inactive), the GI50 [8] was 30 µM (inactive) and the GI50 [9] was 7.28 µM (inactive). For the same compound, the GI50 [10] was 2.17 µM (inactive), the GI50 [11] was 5.7 µM (inactive) and the GI50 [17] was 67.8 µM (inactive). The GI50 [12] was > 100 µM (inactive), the GI50 [13] was 32.6 µM (inactive) and the GI50 [14] was 10.3 µM (inactive). For the same compound, the GI50 [15] was 15.5 µM (inactive), the GI50 [18] was 17.1 µM (inactive) and the GI50 [19] was 17.5 µM (inactive).

With `O=C(CCCCCNC(=O)c1ccc(Cl)cc1)NO` the GI50 [1] was 2.42 µM (inactive), the GI50 [2] was 8.24 µM (inactive) and the GI50 [3] was 4.76 µM (inactive). The GI50 [4] was 2.56 µM (inactive), the GI50 [5] was 6.87 µM (inactive) and the GI50 [6] was 2.54 µM (inactive). For the same compound, the GI50 [7] was 6.59 µM (inactive), the GI50 [8] was 20.6 µM (inactive) and the GI50 [9] was 3.41 µM (inactive). The GI50 [10] was 5.16 µM (inactive), the GI50 [11] was 2.19 µM (inactive) and the GI50 [17] was 1.64 µM (inactive). The GI50 [12] was 15.8 µM (inactive), the GI50 [13] was 5.51 µM (inactive) and the GI50 [14] was 8.99 µM (inactive). The GI50 [15] was 1.15 µM (inactive), the GI50 [18] was 5.97 µM (inactive) and the GI50 [19] was 5.71 µM (inactive).

In the case of `COc1cc2ccnc3c2c(c1O)N(C)C=C3`, the GI50 [1] is reported as 3.88 µM (inactive), the GI50 [2] is reported as 20.2 µM (inactive) and the GI50 [3] is reported as 8.39 µM (inactive). The GI50 [16] was 15.9 µM (inactive), the GI50 [4] was 4 µM (inactive) and the GI50 [5] was 17.7 µM (inactive). The GI50 [7] was 19.4 µM (inactive), the GI50 [8] was 16 µM (inactive) and the GI50 [9] was 9.53 µM (inactive). For the same compound, the GI50 [10] was 6.11 µM (inactive), the GI50 [11] was 1.59 µM (inactive) and the GI50 [17] was 16.7 µM (inactive). For the same compound, the GI50 [12] was 18 µM (inactive), the GI50 [13] was 13.5 µM (inactive) and the GI50 [14] was 18.7 µM (inactive). For the same compound, the GI50 [15] was 18.7 µM (inactive), the GI50 [18] was 17.1 µM (inactive) and the GI50 [19] was 17 µM (inactive).

In the case of `N#Cc1cccc2c1Sc1ccccc1N2`, the GI50 [1] is reported as 7.48 µM (inactive), the GI50 [2] is reported as 24.5 µM (inactive) and the GI50 [3] is reported as 10.4 µM (inactive). The GI50 [16] was 14.8 µM (inactive), the GI50 [4] was 31.3 µM (inactive) and the GI50 [5] was 30.8 µM (inactive). The GI50 [6] was 33.7 µM (inactive), the GI50 [7] was 32.7 µM (inactive) and the GI50 [9] was 29.5 µM (inactive). For the same compound, the GI50 [10] was 45.1 µM (inactive), the GI50 [17] was 26.7 µM (inactive) and the GI50 [12] was 29.3 µM (inactive). For the same compound, the GI50 [13] was 39.2 µM (inactive), the GI50 [14] was 0.397 µM (active) and the GI50 [15] was 31.3 µM (inactive). For the same compound, the GI50 [18] was 21.2 µM (inactive) and the GI50 [19] was 25.8 µM (inactive).

With `CCOC(=O)[C@@H](NC(=O)OC(C)(C)C)[C@@H](O)C(=O)OCC` the GI50 [1] was > 100 µM (inactive), the GI50 [2] was > 100 µM (inactive) and the GI50 [3] was > 100 µM (inactive). The GI50 [16] was 69.5 µM (inactive), the GI50 [4] was > 100 µM (inactive) and the GI50 [5] was > 100 µM (inactive). The GI50 [6] was > 100 µM (inactive), the GI50 [7] was > 100 µM (inactive) and the GI50 [8] was > 100 µM (inactive). The GI50 [9] was > 100 µM (inactive), the GI50 [10] was > 100 µM (inactive) and the GI50 [17] was > 100 µM (inactive). The GI50 [12] was > 100 µM (inactive), the GI50 [13] was > 100 µM (inactive) and the GI50 [14] was > 100 µM (inactive). For the same compound, the GI50 [15] was > 100 µM (inactive), the GI50 [18] was > 100 µM (inactive) and the GI50 [19] was > 100 µM (inactive).

In the case of `CCCCC[C@@H]1OC(=O)[C@@]2(CC3c4ccccc4C2c2ccccc23)[C@H]1C(=O)OC`, the GI50 [1] is reported as 17.2 µM (inactive), the GI50 [2] is reported as 24.4 µM (inactive) and the GI50 [3] is reported as 71.4 µM (inactive). For the same compound, the GI50 [16] was 13.4 µM (inactive), the GI50 [4] was 12.4 µM (inactive) and the GI50 [5] was > 100 µM (inactive). The GI50 [6] was 10.1 µM (inactive), the GI50 [7] was 45.7 µM (inactive) and the GI50 [8] was 58.2 µM (inactive). The GI50 [9] was 79.1 µM (inactive), the GI50 [10] was > 100 µM (inactive) and the GI50 [17] was > 100 µM (inactive). The GI50 [13] was 74.3 µM (inactive), the GI50 [14] was > 100 µM (inactive) and the GI50 [15] was 64.6 µM (inactive). The GI50 [18] was 21.9 µM (inactive) and the GI50 [19] was 55.2 µM (inactive).

In the case of `COc1cccc(/N=N/C(=NNC(=O)c2ccc(C)cc2)c2ccc(N(C)C)cc2)c1`, the GI50 [1] is reported as > 100 µM (inactive), the GI50 [2] is reported as > 100 µM (inactive) and the GI50 [3] is reported as > 100 µM (inactive). For the same compound, the GI50 [4] was > 100 µM (inactive), the GI50 [5] was > 100 µM (inactive) and the GI50 [6] was 62.5 µM (inactive). For the same compound, the GI50 [7] was > 100 µM (inactive), the GI50 [8] was > 100 µM (inactive) and the GI50 [9] was > 100 µM (inactive). The GI50 [10] was > 100 µM (inactive), the GI50 [11] was > 100 µM (inactive) and the GI50 [17] was > 100 µM (inactive). The GI50 [12] was > 100 µM (inactive), the GI50 [13] was > 100 µM (inactive) and the GI50 [14] was > 100 µM (inactive). For the same compound, the GI50 [15] was > 100 µM (inactive), the GI50 [18] was > 100 µM (inactive) and the GI50 [19] was > 100 µM (inactive).

With `Cc1noc(NS(=O)(=O)c2ccc(NC(=O)c3ccc4[nH]c5ccccc5c(=O)c4c3)cc2)c1C` the GI50 [1] was 23.7 µM (inactive), the GI50 [2] was > 100 µM (inactive) and the GI50 [3] was 22.8 µM (inactive). The GI50 [4] was 47.9 µM (inactive), the GI50 [5] was 40.7 µM (inactive) and the GI50 [6] was 29.1 µM (inactive). For the same compound, the GI50 [7] was 36.1 µM (inactive), the GI50 [8] was 39.4 µM (inactive) and the GI50 [9] was 32.2 µM (inactive). For the same compound, the GI50 [10] was > 100 µM (inactive), the GI50 [11] was 26.4 µM (inactive) and the GI50 [17] was > 100 µM (inactive). For the same compound, the GI50 [12] was > 100 µM (inactive), the GI50 [13] was > 100 µM (inactive) and the GI50 [14] was 42 µM (inactive). For the same compound, the GI50 [15] was > 100 µM (inactive), the GI50 [18] was 93.3 µM (inactive) and the GI50 [19] was > 100 µM (inactive).

In the case of `O=c1oc2ccc3ccccc3c2cc1-c1cn2ccsc2n1`, the GI50 [1] is reported as 3.89 µM (inactive), the GI50 [2] is reported as 49.9 µM (inactive) and the GI50 [3] is reported as 15.8 µM (inactive). For the same compound, the GI50 [4] was 16 µM (inactive), the GI50 [5] was 24.8 µM (inactive) and the GI50 [6] was 9.27 µM (inactive). The GI50 [7] was 20.6 µM (inactive), the GI50 [8] was 19.6 µM (inactive) and the GI50 [9] was 19.2 µM (inactive). For the same compound, the GI50 [10] was 0.646 µM (active), the GI50 [11] was 17.1 µM (inactive) and the GI50 [17] was 24.9 µM (inactive). For the same compound, the GI50 [13] was 28.4 µM (inactive), the GI50 [14] was 45.1 µM (inactive) and the GI50 [15] was 29.1 µM (inactive). For the same compound, the GI50 [18] was 25.2 µM (inactive) and the GI50 [19] was 24 µM (inactive).
